Data taken from US20140018371A1, “Modulators Of The GPR119 Receptor And The Treatment Of Disorders Related Thereto” (ARENA PHARMACEUTICALS, INC., priority 2011, published 2014).

Key:
hGPR119 = molecular target: T1, hGPR119 (Homo sapiens, UniProt Q8TDV5); test: HTRF cAMP assay in CHO-K1 cells stably expressing the GPR119 receptor; assay type: cell-based
T1 construct: expressed in transfected cells
T1 sequence (Q8TDV5 2-335 limits assumed): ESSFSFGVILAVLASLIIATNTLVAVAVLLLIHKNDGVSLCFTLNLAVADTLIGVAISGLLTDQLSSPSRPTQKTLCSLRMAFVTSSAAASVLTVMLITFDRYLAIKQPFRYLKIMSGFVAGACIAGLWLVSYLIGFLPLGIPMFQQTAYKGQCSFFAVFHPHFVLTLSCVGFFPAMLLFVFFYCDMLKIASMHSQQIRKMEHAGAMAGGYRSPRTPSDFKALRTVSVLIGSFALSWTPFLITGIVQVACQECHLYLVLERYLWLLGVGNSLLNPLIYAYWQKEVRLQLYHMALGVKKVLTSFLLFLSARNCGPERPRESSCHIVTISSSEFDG
Experimental: GPR119 agonists were evaluated in an HTRF® cAMP detection assay according to the manufacturer's instructions (Cisbio, cAMP Dynamic 2 Assay Kit; #62AM4PEJ) using CHO-K1 cells stably expressing the GPR119 receptor. Briefly, CHO-K1 cells were transduced with a lentiviral vector encoding the nucleotide sequence of GPR119 (NCBI mRNA and protein reference sequences: NM_178471.2 & NP_848566, (GPR119 has also been referred to as Glucose-Dependent Insulinotropic Receptor (GDIR)). The N-terminus of the GPR119 nucleotide sequence was modified to replace the first, methionine-coding codon with a nucleotide sequence coding for a standard, nine amino acid, hemagglutinin tag. Following transduction, cells expressing the GPR119 receptor were isolated and a single clone was isolated following standard dilution-cloning procedures. On the day of the assay, cultured CHO-GPR119 cells were harvested, suspended in assay buffer and plated into 384-well assay plates (PerkinElmer Proxiplate #6008280) at a density of 2,000 cells per well. A cAMP standard curve was added to each plate. Test compounds were solubilized in DMSO, serially diluted in DMSO and then diluted in assay buffer before adding to the cells. Test compounds were evaluated in triplicate, using 10-point, 5-fold serial dilutions starting at 10 μM. The final DMSO concentration in the assay was 0.5%. Compounds and cells were incubated for 1 h at room temperature and then detection reagents were added to each well (cAMP-D2 in cell lysis buffer, followed by europium cryptate-labeled anti-cAMP antibody). Plates were then incubated at room temperature for 1 h prior to reading. Time-resolved fluorescence measurements were collected on PerkinElmer Envision™ or BMG Pherastar™ microplate readers. The compound N-(2-fluoro-4-(methylsulfonyl)phenyl)-6-(4-(3-isopropyl-1,2,4-oxadiazol-5-yl)piperidin-1-yl)-5-nitropyrimidin-4-amine was used as a positive control in each runset while assay buffer containing 0.5% DMSO was used as the negative control. The HTRF® assay was used to determine EC50 values for GPR119 agonists.

Male 129SVE mice [1] = test: In vivo incretin hormone GIP release (plasma total GIP, ELISA); conditions: 3 or 30 mpk p.o., blood sample after 45 min
Experimental: Male 129SVE mice (approximately 8-week old) were fasted for 18 h and randomly grouped (n=6) to receive a GPR119 agonist (Compound 8) at 3 or 30 mpk dose (mg/kg body weight). Compound 8 were delivered orally via a gavage needle (p.o., volume at 4 mL/kg), and after 45 min a blood sample was collected to determine plasma total GIP levels. A separate group received vehicle (PET: 80% PEG:10% Ethanol:10% Tween80™) as control. Plasma GIP levels were determined using a Total GIP ELISA kit from Millipore.

Male 129SVE mice [2] = test: Oral glucose tolerance test (oGTT) in male 129SVE mice; assay type: in vivo; conditions: for plasma glucose level, Mean: oGTT, in mg/dL (unit assumed)
Experimental: Male 129SVE mice (approximately 8-week old) were fasted for 18 h and randomly grouped (n=6) to receive a GPR119 agonist (Compound 8) at 3, or 30 mg/kg (mg/kg body weight). The compound was delivered orally via a gavage needle (p.o., volume at 4 mL/kg) 30 minutes prior to glucose bolus (3 g/kg) (time=−30 min in FIG. 1), with a separate group receiving vehicle (20% hydroxypropyl-beta-cyclodextrin) as control. At time 0 min the glucose bolus was administered. Levels of blood glucose were assessed using a glucometer (One-Touch Ultra™, LifeScan) at time −30 minute (prior to compound administration), at 0 min (at time when glucose bolus was given), and at 20, 40, 60, 120 minutes post glucose bolus. The plasma glucose level (Table 1) and glucose excursion curve (FIG. 1) are shown. Glucose excursion AUC (area under the curve) reduction in compound treated animals relative to vehicle control is given in FIG. 2.

CC(C)(C)OC(=O)N1CCC(CO[C@H]2CC[C@H](c3ccc(S(C)(=O)=O)cc3)CC2)CC1 [Compound 1, tert-Butyl 4-((4-(4-(Methylsulfonyl)phenyl)cyclohexyloxy)methyl)piperidine-1-carboxylate]
EC50 (hGPR119): 16 nM

CCc1cnc(N2CCC(CO[C@H]3CC[C@H](c4ccc(S(C)(=O)=O)cc4F)CC3)CC2)nc1 [Compound 8, 5-Ethyl-2-(4-(((1r,4r)-4-(2-fluoro-4-(methylsulfonyl)phenyl)cyclohexyloxy)methyl)piperidin-1-yl)pyrimidine]
effect on plasma total GIP release (Male 129SVE mice [1]): stimulates the release of GIP | effect on blood glucose after glucose challenge (Male 129SVE mice [2]; 129SVE mice, 3 or 30 mg/kg p.o., 30 min prior to glucose bolus (3 g/kg)): lowered blood glucose | plasma glucose level, Mean (Male 129SVE mice [2]; 3 mpk p.o., 20 min post glucose bolus): 201.3 | plasma glucose level, Mean (Male 129SVE mice [2]; 3 mpk p.o., 40 min post glucose bolus): 250.2 | plasma glucose level, Mean (Male 129SVE mice [2]; 3 mpk p.o., 60 min post glucose bolus): 262.8 | plasma glucose level, Mean (Male 129SVE mice [2]; 3 mpk p.o., 120 min post glucose bolus): 163.3 | plasma glucose level, Mean (Male 129SVE mice [2]; 3 mpk p.o., time 0 min relative to glucose bolus): 112.5 | plasma glucose level, Mean (Male 129SVE mice [2]; 3 mpk p.o., time −30 min relative to glucose bolus (prior to compound administration)): 88.7 | plasma glucose level, Mean (Male 129SVE mice [2]; 30 mpk p.o., 20 min post glucose bolus): 163.5 | plasma glucose level, Mean (Male 129SVE mice [2]; 30 mpk p.o., 40 min post glucose bolus): 204.2 | plasma glucose level, Mean (Male 129SVE mice [2]; 30 mpk p.o., 60 min post glucose bolus): 193.2 | plasma glucose level, Mean (Male 129SVE mice [2]; 30 mpk p.o., 120 min post glucose bolus): 107.5 | plasma glucose level, Mean (Male 129SVE mice [2]; 30 mpk p.o., time 0 min relative to glucose bolus): 96.0 | plasma glucose level, Mean (Male 129SVE mice [2]; 30 mpk p.o., time −30 min relative to glucose bolus (prior to compound administration)): 72.2

CC(C)OC(=O)N1CCC(CO[C@H]2CC[C@H](c3ccc(S(C)(=O)=O)cc3F)CC2)CC1 [Compound 11, Isopropyl 4-(((1r,4r)-4-(2-Fluoro-4-(methylsulfonyl)phenyl)cyclohexyloxy)methyl)piperidine-1-carboxylate]
EC50 (hGPR119): 21 nM

CC(C)(C)OC(=O)N1CCC(CO[C@H]2CC[C@@H](c3cnc(S(C)(=O)=O)cn3)CC2)CC1 [Compound 12, tert-Butyl 4-((-4-(5-(Methylsulfonyl)pyrazin-2-yl)cyclohexyloxy)methyl)piperidine-1-carboxylate]
EC50 (hGPR119): 707 nM

CC(C)(F)c1noc(N2CCC(CO[C@H]3CC[C@H](c4ccc(S(C)(=O)=O)cc4F)CC3)CC2)n1 [Compound 16, 5-(4-(((1r,4r)-4-(2-Fluoro-4-(methylsulfonyl)phenyl)cyclohexyloxy)methyl)piperidin-1-yl)-3-(2-fluoropropan-2-yl)-1,2,4-oxadiazole]
EC50 (hGPR119): 38 nM

CS(=O)(=O)c1ccc([C@H]2CC[C@H](OCC3CCN(c4ncc(C(F)(F)F)cn4)CC3)CC2)nc1 [Compound 18]
EC50 (hGPR119): 134 nM

CC(C)c1noc(N2CCC(COC3CC=C(c4ccc(S(C)(=O)=O)cc4)CC3)CC2)n1 (stereo not shown) [Compound 23, 3-Isopropyl-5-(4-((4-(4-(Methylsulfonyl)phenyl)cyclohex-3-enyloxy)methyl)piperidin-1-yl)-1,2,4-oxadiazole]
EC50 (hGPR119): 15 nM

Cc1nc(S(C)(=O)=O)ccc1[C@H]1CC[C@H](OCC2CCN(c3ncc(C(F)(F)F)cn3)CC2)CC1 [Compound 31, 2-(4-(((1r,4r)-4-(2-Methyl-6-(methylsulfonyl)pyridin-3-yl)cyclohexyloxy)methyl)piperidin-1-yl)-5-(trifluoromethyl)pyrimidine]
EC50 (hGPR119): 42 nM

CC(C)OC(=O)N1CCC(CO[C@H]2CC[C@H](c3ccc(S(C)(=O)=O)cc3)CC2)CC1 [Compound 38, Isopropyl 4-((4-(4-(Methylsulfonyl)phenyl)cyclohexyloxy)methyl)piperidine-1-carboxylate]
EC50 (hGPR119): 57 nM

CSc1ccc([C@H]2CC[C@H](OCC3CCN(C(=O)OC(C)(C)C)CC3)CC2)cc1 [Compound 41, tert-Butyl 4-((4-(4-(Methylthio)phenyl)cyclohexyloxy)methyl)piperidine-1-carboxylate]
EC50 (hGPR119): 505 nM

CC(C)(C)OC(=O)N1CCC(CO[C@H]2CC[C@H](c3ccc(S(C)(=O)=O)cc3F)CC2)CC1 [Compound 42, tert-Butyl 4-((4-(2-Fluoro-4-(methylsulfonyl)phenyl)cyclohexyloxy)methyl)piperidine-1-carboxylate]
EC50 (hGPR119): 6.4 nM

CC(C)(C)OC(=O)N1CCC(CO[C@H]2CC[C@H](c3ccncc3C#N)CC2)CC1 [Compound 49, tert-Butyl 4-(((1r,4r)-4-(3-Cyanopyridin-4-yl)cyclohexyloxy)methyl)piperidine-1-carboxylate]
EC50 (hGPR119): 1030 nM

CC(C)(C)OC(=O)N1CCC(COC2CC=C(c3ccncc3C#N)CC2)CC1 (stereo not shown) [Compound 50, tert-Butyl 4-((4-(3-Cyanopyridin-4-yl)cyclohex-3-enyloxy)methyl)piperidine-1-carboxylate]
EC50 (hGPR119): 38 nM

CC(C)(C)OC(=O)N1CCC(CO[C@H]2CC[C@H](c3ccncc3F)CC2)CC1 [Compound 56, tert-Butyl 4-(((1r,4r)-4-(3-Fluoropyridin-4-yl)cyclohexyloxy)methyl)piperidine-1-carboxylate]
EC50 (hGPR119): 63 nM

CS(=O)(=O)c1ccc([C@H]2CC[C@H](OCC3CCN(Cc4nc(C(F)(F)F)no4)CC3)CC2)c(F)c1 [Compound 60, 5-((4-(((1r,4r)-4-(2-Fluoro-4-(methylsulfonyl)phenyl)cyclohexyloxy)methyl)piperidin-1-yl)methyl)-3-(trifluoromethyl)-1,2,4-oxadiazole]
EC50 (hGPR119): 200 nM
